Test results taken from paper PMC4303583 (International journal of biological macromolecules, 2012).
Where two headings read alike, the source gives them in different places.

What was measured:
[1] = system: wild-type E. coli strain pBWU13.4/DK8; assay type: cell-based, Escherichia coli
[2] = target: T1, E. coli ATP synthase (purified F1 or membrane bound F1Fo) (Escherichia coli, UniProt P0ABA6+P0ABB0+P0ABB4); assay: biochemical; assay type: biochemical
[3] = target: T1, E. coli ATP synthase (purified F1 or membrane bound F1Fo); settings: maximal inhibition; cited from earlier work
[4] = OD595 after ~20 hours growth at 37 °C, control 100, null 45
[5] = left over ATPase activity at maximal inhibition
[6] = purified F1 or membranes, preincubated 60 min at 23°C, varied concentrations
[7] = left over ATPase activity at maximal inhibition, purified F1 or membranes

T1 sequence (P0ABA4 whole entry): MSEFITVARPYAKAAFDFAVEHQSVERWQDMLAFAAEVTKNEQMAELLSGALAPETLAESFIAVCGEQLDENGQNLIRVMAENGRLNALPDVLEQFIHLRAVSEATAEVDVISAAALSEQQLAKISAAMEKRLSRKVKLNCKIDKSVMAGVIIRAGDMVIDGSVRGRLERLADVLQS
T1 sequence (P0ABB4 2-460): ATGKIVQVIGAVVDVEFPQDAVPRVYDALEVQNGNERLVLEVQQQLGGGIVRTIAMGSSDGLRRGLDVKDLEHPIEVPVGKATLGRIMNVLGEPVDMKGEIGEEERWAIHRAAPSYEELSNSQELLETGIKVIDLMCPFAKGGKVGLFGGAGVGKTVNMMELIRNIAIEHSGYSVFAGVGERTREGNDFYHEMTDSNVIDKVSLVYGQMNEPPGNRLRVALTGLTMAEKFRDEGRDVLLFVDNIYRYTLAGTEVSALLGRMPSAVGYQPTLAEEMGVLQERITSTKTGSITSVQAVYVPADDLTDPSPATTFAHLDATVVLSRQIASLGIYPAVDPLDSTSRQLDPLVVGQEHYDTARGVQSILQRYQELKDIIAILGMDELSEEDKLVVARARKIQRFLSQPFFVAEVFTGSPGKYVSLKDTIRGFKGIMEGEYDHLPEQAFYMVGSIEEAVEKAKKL
T1 sequence (P0ABA6 whole entry): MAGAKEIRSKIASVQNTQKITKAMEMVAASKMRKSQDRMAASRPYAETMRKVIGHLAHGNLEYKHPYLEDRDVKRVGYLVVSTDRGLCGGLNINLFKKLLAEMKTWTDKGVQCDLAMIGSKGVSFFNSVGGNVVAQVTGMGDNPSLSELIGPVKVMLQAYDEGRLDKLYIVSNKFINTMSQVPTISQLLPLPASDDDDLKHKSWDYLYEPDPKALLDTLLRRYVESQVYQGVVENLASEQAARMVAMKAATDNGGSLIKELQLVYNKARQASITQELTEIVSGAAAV
T1 sequence (P0A6E6 2-139, further chain): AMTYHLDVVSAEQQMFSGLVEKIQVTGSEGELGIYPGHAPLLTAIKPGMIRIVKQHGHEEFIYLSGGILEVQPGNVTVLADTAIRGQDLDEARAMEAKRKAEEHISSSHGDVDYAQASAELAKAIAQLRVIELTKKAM
T1 sequence (P0ABB0 whole entry): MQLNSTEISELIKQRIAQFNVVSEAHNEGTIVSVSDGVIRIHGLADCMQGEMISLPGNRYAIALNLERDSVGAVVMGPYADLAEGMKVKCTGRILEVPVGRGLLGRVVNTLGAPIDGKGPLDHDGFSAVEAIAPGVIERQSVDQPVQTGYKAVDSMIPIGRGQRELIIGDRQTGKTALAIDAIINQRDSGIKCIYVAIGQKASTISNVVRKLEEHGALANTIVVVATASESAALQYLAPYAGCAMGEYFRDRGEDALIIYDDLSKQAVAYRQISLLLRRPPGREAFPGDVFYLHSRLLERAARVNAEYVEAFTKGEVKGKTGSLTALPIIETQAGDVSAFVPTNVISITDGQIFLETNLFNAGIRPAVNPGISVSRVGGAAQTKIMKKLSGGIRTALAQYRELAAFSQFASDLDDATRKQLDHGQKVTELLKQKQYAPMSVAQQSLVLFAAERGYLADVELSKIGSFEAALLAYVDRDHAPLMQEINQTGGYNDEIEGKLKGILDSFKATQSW

Compound | Growth yield in limiting glucose (%) [1, 4] | IC50 [2] | Residual ATPase Activity (%) [2, 5] | maximum amount of inhibition of ATPase activity [2, 6] | residual activity [2, 7] | other results
Oc1ccc(N=Cc2ccccc2O)cc1 [PC05, 2-[[(4-hydroxyphenyl)Imino]methyl]phenol] | 42% | ~5 µM | 0% |  |  | 
Oc1ccc(O)cc1 [PC02, Hydroquinone] |  | ~20 µM |  |  |  | Growth yield in limiting glucose (%) [1]: 55%; Residual ATPase Activity (%) [2]: 20%; maximum amount of inhibition of ATPase activity [2]: ~ 80%
O=[N+]([O-])c1ccc(OP(=O)(O)Oc2ccc([N+](=O)[O-])cc2)cc1 [PC15, Bis(4-nitrophenyl)phosphate] | 63% |  | 60% | ~ 40% |  | 
Oc1ccc(/C=C/c2cc(O)cc(O)c2)cc1 [resveratrol] |  |  |  |  |  | inhibition of E. coli ATP synthase [3]: ~ 40%
Oc1ccc(C=Nc2ccc(O)cc2)cc1 [PC11, 4-[[(4-Hydroxyphenyl)imino]methyl]phenol] |  |  | 80% |  | ~ 80% | 
Oc1cccc(C=Nc2ccccc2O)c1 [PC07, 3-[[(2-Hydroxyphenyl)imino]methyl]phenol] |  | ~9 µM | 15% |  |  | 
Oc1ccccc1O [PC04, Catechol] | 57% |  | 60% | ~ 40% | ~ 60% | 
Oc1cccc(C=Nc2cccc(O)c2)c1 [PC10, 3-[[(3-Hydroxyphenyl)imino]methyl]phenol] |  | ~2.25 µM | 0% |  |  | 
1,8,9-Anthracentriol [PC17] | 69% |  | 70% | ~ 30% |  | 
Oc1cccc(O)c1 [PC03, Resorcinol] | 79% |  | 80% | ~ 20% | ~ 80% | 
Cc1cc(O)c(C(C)C)cc1O [PC01, Dihydrothymoquinone] | 66% |  | 60% | ~ 40% | ~ 60% | 
O=[N+]([O-])c1ccc(N=Cc2ccccc2O)c(O)c1 [PC13, 2-[[(2-Hydroxy-4-nitrophenyl)imino]methyl]phenol] |  | ~5 µM | 0% |  |  | 
O=[N+]([O-])c1ccc(OP(=O)(Oc2ccc([N+](=O)[O-])cc2)Oc2ccc([N+](=O)[O-])cc2)cc1 [PC14, Tris(4-nitrophenyl)phosphate] | 57% |  | 55% | ~ 45% | ~ 55% | 
O=C1c2cccc(O)c2C(=O)c2c(O)cccc21 [PC16, 1,8-Dihydroxy-9,10-anthraquinone] | 80% |  | 78% | ~ 22% | ~ 78% | 
O=[N+]([O-])c1cc(O)ccc1N=Cc1ccccc1O [PC12, 2-[[(4-Hydroxy-2-nitrophenyl)imino]methyl]phenol] |  | ~6 µM | 0% |  |  | 
Oc1ccccc1C=Nc1ccccc1O [PC09, 2-[[(2-Hydroxyphenyl)imino]methyl]phenol] |  | ~7 µM | 5% |  |  | 
Oc1cccc(N=Cc2ccccc2O)c1 [PC06, 2-[[(3-Hydroxyphenyl)imino]methyl]phenol] | 51% | ~5.25 µM | 15% |  |  | 
Oc1ccc(C=Nc2cccc(O)c2)cc1 [PC08, 4-[[(3-Hydroxyphenyl)imino]methyl]phenol] |  | ~9 µM | 0% |  |  | 
